Where “and” joins values, the source holds several entries; their conditions need not be identical. Equal entries are not always repeated. Toxic doses and inconclusive results are not listed.
Tested on: BDF1 mice, P1081 chloroleukemia ip, survival T/C
Assay: NCI In Vivo Anticancer Drug Screen. Data for tumor model P1081 Chloroleukemia (intraperitoneal) in B6D2F1 (BDF1) mice
Settings: endpoint: mean survival time, higher = longer survival
Protocol: The antitumor activity of compounds was measured in mice bearing transplantable tumors. Survival or tumor size were measured and the results are expressed as the measurement made in the treated group (T) divided by the measurement made in the vehicle treated control group (C). The tumor model used in this assay is P1081 Chloroleukemia (intraperitoneal) in B6D2F1 (BDF1) mice

[1] = dose: 6.25 mg/kg/injection, schedule: Q01DX Z (ip), vehicle: carboxymethylcellulose (CMC)
[2] = dose: 12.5 mg/kg/injection, schedule: Q01DX Z (ip), vehicle: carboxymethylcellulose (CMC)
[3] = dose: 25.0 mg/kg/injection, schedule: Q01DX Z (ip), vehicle: carboxymethylcellulose (CMC)
[4] = dose: 50.0 mg/kg/injection, schedule: Q01DX Z (ip), vehicle: carboxymethylcellulose (CMC)
[5] = dose: 100.0 mg/kg/injection, schedule: Q01DX Z (ip), vehicle: carboxymethylcellulose (CMC)
[6] = dose: 5.0 mg/kg/injection, schedule: Q01DX010 (ip), vehicle: saline
[7] = dose: 10.0 mg/kg/injection, schedule: Q01DX010 (ip), vehicle: saline
[8] = dose: 20.0 mg/kg/injection, schedule: Q01DX010 (ip), vehicle: saline
[9] = dose: 25.0 mg/kg/injection, schedule: Q01DX010 (ip), vehicle: saline
[10] = dose: 50.0 mg/kg/injection, schedule: Q01DX010 (ip), vehicle: saline
[11] = dose: 100.0 mg/kg/injection, schedule: Q01DX010 (ip), vehicle: saline
[12] = dose: 62.5 mg/kg/injection, schedule: Q01DX Z (ip), vehicle: carboxymethylcellulose (CMC)
[13] = dose: 125.0 mg/kg/injection, schedule: Q01DX Z (ip), vehicle: carboxymethylcellulose (CMC)
[14] = dose: 250.0 mg/kg/injection, schedule: Q01DX Z (ip), vehicle: carboxymethylcellulose (CMC)

N[C@@H](Cc1ccc(N(CCCl)CCCl)cc1)C(=O)O
T/C (dose: 0.31 mg/kg/injection, schedule: Q01DX Z (ip), vehicle: saline): 159 % of control | T/C (dose: 0.63 mg/kg/injection, schedule: Q01DX Z (ip), vehicle: saline): 206 % of control | T/C (dose: 1.25 mg/kg/injection, schedule: Q01DX Z (ip), vehicle: saline): 193 % of control | T/C (dose: 2.5 mg/kg/injection, schedule: Q01DX Z (ip), vehicle: saline): 229 % of control | T/C (dose: 5.0 mg/kg/injection, schedule: Q01DX Z (ip), vehicle: saline): 217 % of control | T/C (dose: 10.0 mg/kg/injection, schedule: Q01DX Z (ip), vehicle: saline): 107 % of control

CN(C)c1ccc(Nc2c3ccccc3nc3ccccc23)cc1
T/C [1]: 101 % of control | T/C [2]: 88 % of control | T/C [3]: 90 % of control | T/C (dose: 36.0 mg/kg/injection, schedule: Q01DX010 (ip), vehicle: saline): 104 % of control | T/C [4]: 95 % of control | T/C [5]: 103 % of control

S=P(N1CCOCC1)(N1CC1)N1CC1
T/C (dose: 2.5 mg/kg/injection, schedule: Q01DX010 (ip), vehicle: saline): 116 % of control and 100 % of control | T/C [6]: 105 % of control and 100 % of control | T/C [1]: 93 % of control | T/C [7]: 110 % of control and 122 % of control | T/C [8]: 105 % of control

O=C(Nc1ccc(C2=NCCN2)cc1)c1ccc(C(=O)Nc2ccc(C3=NCCN3)cc2)c([N+](=O)[O-])c1
T/C (dose: 6.0 mg/kg/injection, schedule: Q01DX010 (ip), vehicle: saline): 260 % of control and 288 % of control | T/C (dose: 8.0 mg/kg/injection, schedule: Q01DX010 (ip), vehicle: saline): 285 % of control and 311 % of control | T/C (dose: 12.0 mg/kg/injection, schedule: Q01DX010 (ip), vehicle: saline): 166 % of control and 250 % of control | T/C (dose: 18.0 mg/kg/injection, schedule: Q01DX010 (ip), vehicle: saline): 120 % of control and 122 % of control

CN(N=O)C(=O)NC(C=O)C(O)C(O)C(O)CO (configuration not stated)
T/C [1]: 93 % of control | T/C [2]: 102 % of control | T/C [3]: 112 % of control | T/C [4]: 100 % of control | T/C (dose: 50.0 mg/kg/injection, schedule: Q01DX Z (ip), vehicle: saline): 115 % of control | T/C (dose: 100.0 mg/kg/injection, schedule: Q01DX Z (ip), vehicle: saline): 107 % of control | T/C (dose: 200.0 mg/kg/injection, schedule: Q01DX Z (ip), vehicle: saline): 88 % of control

Nc1c(I)cc(I)cc1C(=O)O
T/C [9]: 100 % of control | T/C [10]: 110 % of control and 88 % of control | T/C [11]: 100 % of control and 105 % of control | T/C (dose: 200.0 mg/kg/injection, schedule: Q01DX010 (ip), vehicle: saline): 111 % of control and 105 % of control

C[C@]12CCC(=O)C=C1CC[C@@H]1[C@@H]2C(=O)C[C@@]2(C)[C@H]1CC[C@]2(O)C(=O)CO
T/C (dose: 6.25 mg/kg/injection, schedule: Q01DX Z (sc), vehicle: steriod suspending solution): 103 % of control | T/C (dose: 12.5 mg/kg/injection, schedule: Q01DX Z (sc), vehicle: steriod suspending solution): 102 % of control | T/C (dose: 25.0 mg/kg/injection, schedule: Q01DX Z (sc), vehicle: steriod suspending solution): 123 % of control and 102 % of control | T/C (dose: 50.0 mg/kg/injection, schedule: Q01DX Z (sc), vehicle: steriod suspending solution): 111 % of control | T/C (dose: 100.0 mg/kg/injection, schedule: Q01DX Z (sc), vehicle: steriod suspending solution): 116 % of control

Cn1cnc([N+](=O)[O-])c1Sc1ncnc2nc[nH]c12
T/C [3]: 165 % of control | T/C [4]: 150 % of control | T/C [5]: 104 % of control

C[C@H](N)C(=O)N[C@@H]1[C@H]2C(=C(O)C[C@@H](O)[C@@H]2O)C(=O)O[C@@H]1C
T/C (dose: 93.8 mg/kg/injection, schedule: Q01DX Z (ip), vehicle: saline): 124 % of control | T/C (dose: 187.5 mg/kg/injection, schedule: Q01DX Z (ip), vehicle: saline): 150 % of control | T/C (dose: 250.0 mg/kg/injection, schedule: Q01DX Z (ip), vehicle: saline): 161 % of control | T/C (dose: 375.0 mg/kg/injection, schedule: Q01DX Z (ip), vehicle: saline): 175 % of control | T/C (dose: 500.0 mg/kg/injection, schedule: Q01DX Z (ip), vehicle: saline): 153 % of control | T/C (dose: 1000.0 mg/kg/injection, schedule: Q01DX Z (ip), vehicle: saline): 119 % of control

C[C@]12CCC(=O)C[C@H]1CC[C@@H]1[C@@H]2CC[C@@]2(C)[C@H]1CC[C@]2(C)O
T/C (dose: 62.5 mg/kg/injection, schedule: Q01DX Z (sc), vehicle: steriod suspending solution): 114 % of control | T/C (dose: 125.0 mg/kg/injection, schedule: Q01DX Z (sc), vehicle: steriod suspending solution): 100 % of control | T/C (dose: 250.0 mg/kg/injection, schedule: Q01DX Z (sc), vehicle: steriod suspending solution): 110 % of control | T/C (dose: 500.0 mg/kg/injection, schedule: Q01DX Z (sc), vehicle: steriod suspending solution): 112 % of control

N#[N+]c1cnc([O-])[nH]c1=O
T/C (dose: 1.25 mg/kg/injection, schedule: Q01DX010 (ip), vehicle: saline): 115 % of control | T/C [6]: 160 % of control | T/C [7]: 160 % of control and 166 % of control

O=CN(O)CC(=O)O
T/C [12]: 99 % of control | T/C [13]: 109 % of control | T/C [14]: 110 % of control | T/C (dose: 500.0 mg/kg/injection, schedule: Q01DX Z (ip), vehicle: carboxymethylcellulose (CMC)): 101 % of control

O=c1[nH]c(=O)n(C2CC(O)C(CO)O2)cc1Br (configuration not stated)
T/C (dose: 16.0 mg/kg/injection, schedule: Q01DX Z (ip), vehicle: carboxymethylcellulose (CMC)): 86 % of control | T/C (dose: 31.0 mg/kg/injection, schedule: Q01DX Z (ip), vehicle: carboxymethylcellulose (CMC)): 107 % of control and 88 % of control | T/C [12]: 106 % of control and 99 % of control | T/C [13]: 88 % of control | T/C [14]: 101 % of control

CCN(CC)CCNc1ccc(C)c2sc3ccccc3c(=O)c12
T/C (dose: 1.56 mg/kg/injection, schedule: Q01DX Z (ip), vehicle: methylcellulose (MC)): 87 % of control | T/C (dose: 6.25 mg/kg/injection, schedule: Q01DX Z (ip), vehicle: methylcellulose (MC)): 88 % of control | T/C (dose: 6.3 mg/kg/injection, schedule: Q01DX Z (ip), vehicle: methylcellulose (MC)): 90 % of control | T/C (dose: 12.5 mg/kg/injection, schedule: Q01DX Z (ip), vehicle: methylcellulose (MC)): 91 % of control | T/C [9]: 110 % of control and 122 % of control | T/C (dose: 25.0 mg/kg/injection, schedule: Q01DX Z (ip), vehicle: methylcellulose (MC)): 95 % of control | T/C [10]: 150 % of control | T/C (dose: 50.0 mg/kg/injection, schedule: Q01DX Z (ip), vehicle: methylcellulose (MC)): 96 % of control | T/C [11]: 122 % of control and 95 % of control | T/C (dose: 100.0 mg/kg/injection, schedule: Q01DX Z (ip), vehicle: methylcellulose (MC)): 101 % of control

CC1CCOS(=O)O1 (configuration not stated)
T/C (dose: 2.5 mg/kg/injection, schedule: Q01DX Z (ip), vehicle: carboxymethylcellulose (CMC)): 101 % of control | T/C (dose: 5.0 mg/kg/injection, schedule: Q01DX Z (ip), vehicle: carboxymethylcellulose (CMC)): 115 % of control | T/C [7]: 115 % of control | T/C (dose: 10.0 mg/kg/injection, schedule: Q01DX Z (ip), vehicle: carboxymethylcellulose (CMC)): 86 % of control | T/C [8]: 110 % of control | T/C (dose: 40.0 mg/kg/injection, schedule: Q01DX010 (ip), vehicle: saline): 95 % of control

O=c1cnn(C2OC(CO)C(O)C2O)c(=O)[nH]1 (configuration not stated)
T/C (dose: 62.5 mg/kg/injection, schedule: Q01DX Z (ip), vehicle: water): 94 % of control | T/C (dose: 125.0 mg/kg/injection, schedule: Q01DX Z (ip), vehicle: water): 120 % of control and 90 % of control | T/C (dose: 250.0 mg/kg/injection, schedule: Q01DX Z (ip), vehicle: water): 116 % of control and 121 % of control | T/C (dose: 500.0 mg/kg/injection, schedule: Q01DX Z (ip), vehicle: water): 120 % of control | T/C (dose: 1000.0 mg/kg/injection, schedule: Q01DX Z (ip), vehicle: water): 92 % of control | T/C (dose: 1600.0 mg/kg/injection, schedule: Q01DX010 (ip), vehicle: saline): 100 % of control

COc1cc2c(c(OC)c1OC)-c1ccc(N)c(=O)cc1[C@@H](NC(C)=O)CC2
T/C (dose: 0.5 mg/kg/injection, schedule: Q01DX010 (ip), vehicle: saline): 177 % of control | T/C (dose: 1.0 mg/kg/injection, schedule: Q01DX010 (ip), vehicle: saline): 188 % of control and 250 % of control | T/C (dose: 2.0 mg/kg/injection, schedule: Q01DX010 (ip), vehicle: saline): 100 % of control

— PubChem BioAssay AID246 (DTP/NCI, 2004)
